Reference: patent EP3598902A1, “VITAMIN B2 AND ITS USE” (Société des Produits Nestlé S.A., priority 2014, dated 2016)

Test system: L6 differentiated muscle cells
Assay: glucose uptake (radiolabelled 2-deoxy-D-[1,2 3H] glucose) in differentiated muscle cells, absence of insulin
Format: cell-based
Conditions: ingredient G 1 µM, ingredient K 10 nM, versus control or basal condition
Experimental: Ingredient G refers to vitamin B2, ingredient k refers to 1,25-dihydroxyvitamin D3, and ingredient J refers to zinc chloride.
Ingredient G was tested at 1 µM. Ingredient K was tested at 10 nM, and ingredient J was tested at 20 µM.
Each ingredient was tested in triplicate.

SMILES: Cc1cc2nc3c(=O)[nH]c(=O)nc-3n(C[C@H](O)[C@H](O)[C@H](O)CO)c2cc1C [ingredient G, vitamin B2]
- glucose uptake (long term incubation (24 hrs)): increases in glucose uptake were observed
- glucose uptake (short term incubation (2 hrs), ingredient J 20 µM): increases in glucose uptake were observed
